Measured values: patent US11214594B2, “Antimicrobial peptide having synergistic antibacterial effect with antibiotics on multidrug resistant bacteria, and use thereof” (priority 2016, dated 2022)
Converted amounts (≈) assume the structure as drawn. Where a SMILES comes first, the peptide text is derived from it.

What was measured:
S. typhimurium = experiment: microbe, parasite or virus in culture; assay type: cell-based, Salmonella typhimurium
Experimental: (§1) For the antibacterial activity, a minimal inhibitory concentration (MIC) of a peptide in which fungus bodies were not split in an MH medium with sufficient nutrients was measured.
(§2) Specifically, the strains described in the following [Table 2] were purchased and diluted with an MH medium such that the number of bacteria was 2×10^6 colony-forming units (CFUs), 100 μl of each of the diluted strains was aliquoted into a 96-well microtiter plate, and then 100 μl of a peptide solution diluted with the MH medium (solution diluted stepwise at 2: 1) was added to each well.

S. aureus = experiment: microbe, parasite or virus in culture; assay type: cell-based, Staphylococcus aureus
Experimental: as §1, §2

MDRAB 12035 = experiment: microbe, parasite or virus in culture; assay type: cell-based, Acinetobacter baumannii
Experimental: as §1, §2

A. baumannii [1] = experiment: microbe, parasite or virus in culture; assay type: cell-based, Acinetobacter baumannii
Experimental: as §1, §2

A. baumannii [2] = experiment: MIC of antibiotic during combined treatment with antimicrobial peptide; assay type: cell-based, Acinetobacter baumannii; details: for Antibiotic MIC, Erythromycin / Antibiotic MIC, Linezolid / Antibiotic MIC, Vancomycin: A. baumannii
Experimental: Thereafter, the MIC value of each mixed solution was determined by diluting the antibiotic solution with the MH medium, adding 50 μl of the diluted solution to each well, and performing an experiment even under a reversed condition.

MDREC 1229 = experiment: as above; assay type: cell-based, Escherichia coli
Experimental: Specifically, the strains described in [Table 2] were prepared and diluted with an MH medium such that the number of bacteria was 2×10^6 colony-forming units (CFUs) per 1 ml, 100 μl of the diluted strains was each aliquoted into a 96-well microtiter plate, and then 50 μl of a peptide solution diluted with the MH medium from the MIC value (solution diluted stepwise at 2: 1) was added to each well. Thereafter, the MIC value of each mixed solution was determined by diluting the antibiotic solution with the MH medium, adding 50 μl of the diluted solution to each well, and performing an experiment even under a reversed condition.

[3] = combined with peptide at 1 μg/ml
[4] = combined with peptide at 2 μg/ml
[5] = combined with peptide at 4 μg/ml
[6] = combined with peptide at 6 μg/ml
[7] = combined with peptide at 8 μg/ml
[8] = combined with peptide at 16 μg/ml
[9] = combined with peptide at 32 μg/ml
[10] = combined with peptide at 64 μg/ml
[11] = peptide treatment concentration 1 μg/ml
[12] = peptide treatment concentration 2 μg/ml
[13] = peptide treatment concentration 4 μg/ml
[14] = peptide treatment concentration 6 μg/ml
[15] = peptide treatment concentration 8 μg/ml
[16] = peptide treatment concentration 16 μg/ml
[17] = peptide treatment concentration 32 μg/ml
[18] = peptide treatment concentration 64 μg/ml

`CC[C@H](C)[C@H](NC(=O)[C@H](CCCCN)NC(=O)[C@H](Cc1c[nH]c2ccccc12)NC(=O)[C@@H](N)CCCNC(=N)N)C(=O)N[C@@H](Cc1ccccc1)C(=O)N[C@@H](CCCCN)C(=O)N[C@@H](CCCCN)C(=O)N[C@H](C(=O)N1CCC[C@H]1C(=O)N[C@@H](CCCCN)C(=O)N[C@@H](Cc1ccccc1)C(=O)N[C@@H](CC(C)C)C(=O)N[C@@H](Cc1c[nH]cn1)C(=O)N[C@@H](CO)C(=O)N[C@@H](Cc1ccccc1)C(=O)N[C@@H](CCCCN)C(=O)N[C@@H](CCCCN)C(=O)N[C@@H](Cc1ccccc1)C(N)=O)[C@@H](C)CC` [PapMA-5, RWK IFK KIP KFL HSF KKF-NH2] (H-RWKIFKKIPKFLHSFKKF-NH2; N-terminus assumed) was tested, and the “Minimal inhibitory concentration MIC” value (S. typhimurium) was 64 µg/mL (≈ 26.9 µM), the “Minimal inhibitory concentration MIC” value (S. aureus) was >128 µg/mL and the “Minimal inhibitory concentration MIC” value (MDRAB 12035) was 64 µg/mL (≈ 26.9 µM). For the same compound, the “Peptide MIC, peptide alone” value (MDRAB 12035) was 64 µg/mL, the “Minimal inhibitory concentration MIC” value (A. baumannii [1]) was 64 µg/mL (≈ 26.9 µM) and the “Peptide MIC, peptide alone” value (A. baumannii [1]) was 64 µg/mL. For the same compound, the “Synergistic effect of antibacterial activity with existing antibiotics compared with PapMA-1” value (A. baumannii [2]; A. baumannii and MDRAB 12035) was “level similar to that of PapMA-1 peptide”, the “Antibiotic MIC, Erythromycin” value (A. baumannii [2]; [3]) was 32 µg/mL and the “Antibiotic MIC, Linezolid” value (A. baumannii [2]; [3]) was 128 µg/mL. For the same compound, the “Antibiotic MIC, Vancomycin” value (A. baumannii [2]; [3]) was >128 µg/mL, the “Antibiotic MIC, Erythromycin” value (A. baumannii [2]; [4]) was 16 µg/mL and the “Antibiotic MIC, Linezolid” value (A. baumannii [2]; [4]) was 64 µg/mL. For the same compound, the “Antibiotic MIC, Vancomycin” value (A. baumannii [2]; [4]) was >128 µg/mL, the “Antibiotic MIC, Erythromycin” value (A. baumannii [2]; [5]) was 8 µg/mL and the “Antibiotic MIC, Linezolid” value (A. baumannii [2]; [5]) was 16 µg/mL. For the same compound, the “Antibiotic MIC, Vancomycin” value (A. baumannii [2]; [5]) was 32 µg/mL, the “Antibiotic MIC, Erythromycin” value (A. baumannii [2]; [6]) was 4 µg/mL and the “Antibiotic MIC, Linezolid” value (A. baumannii [2]; [6]) was 8 µg/mL. For the same compound, the “Antibiotic MIC, Vancomycin” value (A. baumannii [2]; [6]) was 16 µg/mL, the “Antibiotic MIC, Erythromycin” value (A. baumannii [2]; [7]) was 0.5 µg/mL and the “Antibiotic MIC, Linezolid” value (A. baumannii [2]; [7]) was 4 µg/mL. The “Antibiotic MIC, Vancomycin” value (A. baumannii [2]; [7]) was 8 µg/mL, the “Antibiotic MIC, Erythromycin” value (A. baumannii [2]; [8]) was 0.25 µg/mL and the “Antibiotic MIC, Linezolid” value (A. baumannii [2]; [8]) was 4 µg/mL. The “Antibiotic MIC, Vancomycin” value (A. baumannii [2]; [8]) was 4 µg/mL, the “Antibiotic MIC, Erythromycin” value (A. baumannii [2]; [9]) was 0.125 µg/mL and the “Antibiotic MIC, Linezolid” value (A. baumannii [2]; [9]) was 2 µg/mL. For the same compound, the “Antibiotic MIC, Vancomycin” value (A. baumannii [2]; [9]) was 2 µg/mL, the “Antibiotic MIC, Erythromycin” value (A. baumannii [2]; [10]) was 0 µg/mL and the “Antibiotic MIC, Linezolid” value (A. baumannii [2]; [10]) was 0 µg/mL. The “Antibiotic MIC, Vancomycin” value (A. baumannii [2]; [10]) was 0 µg/mL, the “Antibiotic MIC, Erythromycin” value (MDREC 1229; [11]) was 128 µg/mL and the “Antibiotic MIC, Linezolid” value (MDREC 1229; [11]) was 128 µg/mL. For the same compound, the “Antibiotic MIC, Vancomycin” value (MDREC 1229; [11]) was >128 µg/mL, the “Antibiotic MIC, Erythromycin” value (MDREC 1229; [12]) was 64 µg/mL and the “Antibiotic MIC, Linezolid” value (MDREC 1229; [12]) was 128 µg/mL. The “Antibiotic MIC, Vancomycin” value (MDREC 1229; [12]) was >128 µg/mL, the “Antibiotic MIC, Erythromycin” value (MDREC 1229; [13]) was 16 µg/mL and the “Antibiotic MIC, Linezolid” value (MDREC 1229; [13]) was 64 µg/mL. The “Antibiotic MIC, Vancomycin” value (MDREC 1229; [13]) was >128 µg/mL, the “Antibiotic MIC, Erythromycin” value (MDREC 1229; [14]) was 8 µg/mL and the “Antibiotic MIC, Linezolid” value (MDREC 1229; [14]) was 32 µg/mL. For the same compound, the “Antibiotic MIC, Vancomycin” value (MDREC 1229; [14]) was >128 µg/mL, the “Antibiotic MIC, Erythromycin” value (MDREC 1229; [15]) was 4 µg/mL and the “Antibiotic MIC, Linezolid” value (MDREC 1229; [15]) was 32 µg/mL. The “Antibiotic MIC, Vancomycin” value (MDREC 1229; [15]) was 64 µg/mL, the “Antibiotic MIC, Erythromycin” value (MDREC 1229; [16]) was 1 µg/mL and the “Antibiotic MIC, Linezolid” value (MDREC 1229; [16]) was 16 µg/mL. For the same compound, the “Antibiotic MIC, Vancomycin” value (MDREC 1229; [16]) was 16 µg/mL, the “Antibiotic MIC, Erythromycin” value (MDREC 1229; [17]) was 0.25 µg/mL and the “Antibiotic MIC, Linezolid” value (MDREC 1229; [17]) was 4 µg/mL. For the same compound, the “Antibiotic MIC, Vancomycin” value (MDREC 1229; [17]) was 8 µg/mL, the “Antibiotic MIC, Erythromycin” value (MDREC 1229; [18]) was 0 µg/mL and the “Antibiotic MIC, Linezolid” value (MDREC 1229; [18]) was 0 µg/mL. The “Antibiotic MIC, Vancomycin” value (MDREC 1229; [18]) was 0 µg/mL.
